Assay results: patent publication US12077503B2, “Substituted cyclic amides and their use as herbicides” (FMC CORPORATION, priority 2015, dated 2024)
Where two headings read alike, the source gives them in different places.

Key:
[1] = system: wheat (Triticum aestivum); assay: Test A postemergence; format: in vivo; settings: Triticum aestivum, post-emergence, 240 h, postemergence; for plant injury at 125 g/ha: 125 g ai/ha; for plant injury at 500 g/ha: 500 g ai/ha
Method in brief: (§1)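 Visual injury, scored on a 0–100 scale relative to untreated controls, was recorded about 10 d after application. Treatments were a preemergence soil spray over planted seeds or a postemergence spray on plants at the one- to two-leaf stage, 2 to 10 cm tall, all in loam soil–sand blend in the greenhouse.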

[2] = system: giant foxtail (Setaria faberii); assay: Test A postemergence; format: in vivo; settings: Setaria faberi, post-emergence, 240 h, postemergence; for pest or weed control at 125 g/ha: 125 g ai/ha; for pest or weed control at 500 g/ha: 500 g ai/ha
Method in brief: as §1

[3] = system: blackgrass (Alopecurus myosuroides); assay: Test A postemergence; format: in vivo; settings: Alopecurus myosuroides, post-emergence, 240 h; for pest or weed control at 125 g/ha: 125 g ai/ha; for pest or weed control at 500 g/ha: 500 g ai/ha
Method in brief: as §1

[4] = system: ryegrass, Italian (Italian ryegrass, Lolium multiflorum); assay: Test A postemergence; format: in vivo; settings: Lolium multiflorum, post-emergence, 240 h, postemergence; for pest or weed control at 125 g/ha: 125 g ai/ha; for pest or weed control at 500 g/ha: 500 g ai/ha
Method in brief: as §1

[5] = system: ragweed (common ragweed, Ambrosia elatior); assay: Test A postemergence; format: in vivo; settings: Ambrosia artemisiifolia, post-emergence, 240 h, postemergence; for pest or weed control at 125 g/ha: 125 g ai/ha; for pest or weed control at 500 g/ha: 500 g ai/ha
Method in brief: as §1

[6] = system: foxtail, giant (giant foxtail, Setaria faberii); assay: Test C preemergence; format: in vivo; settings: for Plant response rating, Foxtail, Giant: scale 0 to 100, 0 no effect, 100 complete control
Method in brief: (§2)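 Visual 0 (no effect) to 100 (complete control) ratings versus controls, taken 13–15 d after treatment in the greenhouse; dash means no result. Compounds in a surfactant-containing non-phytotoxic solvent blend were applied preemergence to seeds in loam-sand soil or postemergence to 1- to 4-leaf plants (2–18 cm) in peat-based medium.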

[7] = system: oilseed rape (Brassica napus); assay: Test C preemergence; format: in vivo; settings: for Plant response rating, Oilseed Rape: scale 0 to 100, 0 no effect, 100 complete control
Method in brief: as §2

corn (Zea mays) = assay: Test C preemergence; format: in vivo; settings: for Plant response rating, Corn: scale 0 to 100, 0 no effect, 100 complete control
Method in brief: as §2

[8] = system: blackgrass (Alopecurus myosuroides); assay: Test C preemergence; format: in vivo; settings: for Plant response rating, Blackgrass: scale 0 to 100, 0 no effect, 100 complete control
Method in brief: as §2

[9] = system: johnsongrass (Sorghum halepense); assay: Test C preemergence; format: in vivo; settings: for Plant response rating, Johnsongrass: scale 0 to 100, 0 no effect, 100 complete control
Method in brief: as §2

[10] = system: morningglory (Ipomoea coccinea); assay: Test C preemergence; format: in vivo; settings: for Plant response rating, Morningglory: scale 0 to 100, 0 no effect, 100 complete control
Method in brief: as §2

[11] = system: lambsquarters (Chenopodium album); assay: Test C preemergence; format: in vivo; settings: for Plant response rating, Lambsquarters: scale 0 to 100, 0 no effect, 100 complete control
Method in brief: as §2

[12] = system: nutsedge, yellow (yellow nutsedge, Cyperus esculentus); assay: Test C preemergence; format: in vivo; settings: for Plant response rating, Nutsedge, Yellow: scale 0 to 100, 0 no effect, 100 complete control
Method in brief: as §2

[13] = system: barnyardgrass (Echinochloa crus-galli); assay: Test C preemergence; format: in vivo; settings: for Plant response rating, Barnyardgrass: scale 0 to 100, 0 no effect, 100 complete control
Method in brief: as §2

[14] = system: pigweed (Amaranthus retroflexus); assay: Test C preemergence; format: in vivo; settings: for Plant response rating, Pigweed: scale 0 to 100, 0 no effect, 100 complete control
Method in brief: as §2

[15] = 31 g ai/ha, 0 is no effect, 100 is complete control

SMILES: O=C1NC[C@H](c2ccc(F)c(OC(F)(F)C(F)F)c2)[C@H]1C(=O)Nc1ccc(F)cc1F (racemic) [Compound 1154]
- melting point: 102 to 106 °C
- plant injury at 125 g/ha ([1]; visual injury vs untreated controls after approx. 10 d, 0 = no effect, 100 = complete control, read-out: Wheat plant response rating (0 to 100 scale)): 40%
- plant injury at 500 g/ha ([1]; 0 to 100 scale, 0 is no effect, 100 is complete control, read-out: Wheat plant response rating): 80%
- pest or weed control at 125 g/ha ([2]; visual injury on 0 to 100 scale (0 no effect, 100 complete control), approx. 10 d, read-out: Foxtail, Giant plant response rating): 90%
- pest or weed control at 500 g/ha ([2]; 0 to 100 scale, 0 is no effect, 100 is complete control, read-out: Foxtail, Giant plant response rating): 60%
- pest or weed control at 125 g/ha ([3]; postemergence, visual injury on 0 to 100 scale (0 no effect, 100 complete control), approx. 10 d, read-out: Blackgrass plant response rating): 70%
- pest or weed control at 500 g/ha ([3]; postemergence, 0 to 100 scale, 0 is no effect, 100 is complete control, read-out: Blackgrass plant response rating): 90%
- pest or weed control at 125 g/ha ([4]; visual injury vs untreated controls after approx. 10 d, 0 = no effect, 100 = complete control, read-out: Ryegrass, Italian plant response rating (0 to 100 scale)): 30%
- pest or weed control at 500 g/ha ([4]; 0 to 100 scale, 0 is no effect, 100 is complete control, read-out: Ryegrass, Italian plant response rating): 50%
- pest or weed control at 125 g/ha ([5]; visual injury vs untreated controls after approx. 10 d, 0 = no effect, 100 = complete control, read-out: Ragweed plant response rating (0 to 100 scale)): 0%
- pest or weed control at 500 g/ha ([5]; 0 to 100 scale, 0 is no effect, 100 is complete control, read-out: Ragweed plant response rating): 40%

SMILES: CN1C[C@H](c2ccc(F)c(F)c2)[C@@H](C(=O)Nc2cccc(F)c2F)C1=O [Compound 639, (3S,4S)—N-(2,3-difluorophenyl)-4-(3,4-difluorophenyl)-1-methyl-2-oxo-3-pyrrolidinecarboxamide]
- plant injury at 125 g/ha ([1]; visual rating after approx. 10 d, 0 to 100 scale (0 no effect, 100 complete control), read-out: Plant response rating, Wheat): 60%
- plant injury at 500 g/ha ([1]; visual injury, 0 to 100 scale (0 no effect, 100 complete control), approx. 10 d, read-out: Plant response rating, Wheat): 60%
- pest or weed control at 125 g/ha ([2]; visual rating after approx. 10 d, 0 to 100 scale (0 no effect, 100 complete control), read-out: Plant response rating, Foxtail, Giant): 90%
- pest or weed control at 500 g/ha ([2]; visual injury, 0 to 100 scale (0 no effect, 100 complete control), approx. 10 d, read-out: Plant response rating, Foxtail, Giant): 90%
- pest or weed control at 125 g/ha ([3]; postemergence, visual rating after approx. 10 d, 0 to 100 scale (0 no effect, 100 complete control), read-out: Plant response rating, Blackgrass): 60%
- pest or weed control at 500 g/ha ([3]; Postemergence, 0 to 100 scale where 0 is no effect and 100 is complete control, read-out: Plant response rating, Blackgrass): 60%
- pest or weed control at 125 g/ha ([4]; visual rating after approx. 10 d, 0 to 100 scale (0 no effect, 100 complete control), read-out: Plant response rating, Ryegrass, Italian): 30%
- pest or weed control at 500 g/ha ([4]; visual injury, 0 to 100 scale (0 no effect, 100 complete control), approx. 10 d, read-out: Plant response rating, Ryegrass, Italian): 50%
- pest or weed control at 125 g/ha ([5]; visual rating after approx. 10 d, 0 to 100 scale (0 no effect, 100 complete control), read-out: Plant response rating, Ragweed): 0%
- pest or weed control at 500 g/ha ([5]; visual injury, 0 to 100 scale (0 no effect, 100 complete control), approx. 10 d, read-out: Plant response rating, Ragweed): 30%
- Plant response rating (scale of 0 to 100), Foxtail, Giant [6, 15]: 90
- Plant response rating, Foxtail, Giant ([6]; 62 g ai/ha): 90
- Plant response rating, Foxtail, Giant ([6]; 125 g ai/ha): 95
- Plant response rating, Foxtail, Giant ([6]; 250 g ai/ha): 100
- Plant response rating (scale of 0 to 100), Oilseed Rape [7, 15]: 0
- Plant response rating, Oilseed Rape ([7]; 62 g ai/ha): 60
- Plant response rating, Oilseed Rape ([7]; 125 g ai/ha): 85
- Plant response rating, Oilseed Rape ([7]; 250 g ai/ha): 90
- Plant response rating (scale of 0 to 100), Corn (corn (Zea mays); [15]): 5
- Plant response rating, Corn (corn (Zea mays); 62 g ai/ha): 40
- Plant response rating, Corn (corn (Zea mays); 125 g ai/ha): 80
- Plant response rating, Corn (corn (Zea mays); 250 g ai/ha): 85
- Plant response rating (scale of 0 to 100), Blackgrass [8, 15]: 40
- Plant response rating, Blackgrass ([8]; 62 g ai/ha): 85
- Plant response rating, Blackgrass ([8]; 125 g ai/ha): 85
- Plant response rating, Blackgrass ([8]; 250 g ai/ha): 90
- Plant response rating (scale of 0 to 100), Johnsongrass [9, 15]: 20
- Plant response rating, Johnsongrass ([9]; 62 g ai/ha): 65
- Plant response rating, Johnsongrass ([9]; 125 g ai/ha): 80
- Plant response rating, Johnsongrass ([9]; 250 g ai/ha): 90
- Plant response rating (scale of 0 to 100), Morningglory [10, 15]: 20
- Plant response rating, Morningglory ([10]; 62 g ai/ha): 10
- Plant response rating, Morningglory ([10]; 125 g ai/ha): 35
- Plant response rating, Morningglory ([10]; 250 g ai/ha): 40
- Plant response rating (scale of 0 to 100), Lambsquarters [11, 15]: 20
- Plant response rating, Lambsquarters ([11]; 62 g ai/ha): 25
- Plant response rating, Lambsquarters ([11]; 125 g ai/ha): 40
- Plant response rating, Lambsquarters ([11]; 250 g ai/ha): 70
- Plant response rating (scale of 0 to 100), Nutsedge, Yellow [12, 15]: 0
- Plant response rating, Nutsedge, Yellow ([12]; 62 g ai/ha): 0
- Plant response rating, Nutsedge, Yellow ([12]; 125 g ai/ha): 0
- Plant response rating, Nutsedge, Yellow ([12]; 250 g ai/ha): 20
- Plant response rating (scale of 0 to 100), Barnyardgrass [13, 15]: 90
- Plant response rating, Barnyardgrass ([13]; 62 g ai/ha): 95
- Plant response rating, Barnyardgrass ([13]; 125 g ai/ha): 95
- Plant response rating, Barnyardgrass ([13]; 250 g ai/ha): 100
- Plant response rating (scale of 0 to 100), Pigweed [14, 15]: 40
- Plant response rating, Pigweed ([14]; 62 g ai/ha): 55
- Plant response rating, Pigweed ([14]; 125 g ai/ha): 65
- Plant response rating, Pigweed ([14]; 250 g ai/ha): 75

SMILES: CN1CC(c2cccc(I)c2)C(C(=O)Nc2ccccc2F)C1=O (stereo not shown) [Compound 846]
- melting point: 132 to 135 °C
- plant injury at 125 g/ha ([1]; visual injury rating after approximately 10 d, read-out: Wheat plant response rating (0 to 100 scale, 0 no effect, 100 complete control)): 0%
- pest or weed control at 125 g/ha ([2]; visual injury rating after approximately 10 d, read-out: Foxtail, Giant plant response rating (0 to 100 scale, 0 no effect, 100 complete control)): 90%
- pest or weed control at 125 g/ha ([3]; postemergence, visual injury rating after approximately 10 d, read-out: Blackgrass plant response rating (0 to 100 scale, 0 no effect, 100 complete control)): 50%
- pest or weed control at 125 g/ha ([4]; visual injury rating after approximately 10 d, read-out: Ryegrass, Italian plant response rating (0 to 100 scale, 0 no effect, 100 complete control)): 70%
- pest or weed control at 125 g/ha ([5]; visual injury rating after approximately 10 d, read-out: Ragweed plant response rating (0 to 100 scale, 0 no effect, 100 complete control)): 0%
